Earlier results in US20070281995A1, “Creatine analog prodrugs, compositions and uses thereof” (XenoPort, Inc., priority 2006, published 2007).
Like-named read-outs stand apart in the source and are kept apart here.

Columns and labels:
[1] = animals fed a diet containing up to 1%
[2] = healthy volunteers, oral creatine administration
[3] = not given; remark: listed apart in the source

SMILES: CN(CC(=O)O)C(=N)NP(=O)(O)O [creatine phosphate]
- adverse side effects (patients with cardiac diseases, intravenous injection up to 8 gm/day): without adverse side effects

SMILES: NC1=NCCN1CC(=O)O [cyclocreatine]
- adverse effects [1]: do not exhibit adverse effects

SMILES: CN(CC(=O)O)C(=N)N.O [creatine monohydrate]
- adverse side effects (athletes and body builders, 2-3 gm/day): without adverse side effects

SMILES: CN(CC(=O)O)C(=N)N [creatine, Creatine]
- increase of cerebral creatine phosphate [2]: about 10%
- overall increase in creatine phosphate levels ([3]; creatine supplementation, typically takes weeks): < 50%
- duration of increases in tissue creatine phosphate levels ([3]; following oral creatine supplementation): > 14 days
